Source: US6608055B2, “Crystalline anticholinergic, processes for preparing it and its use for preparing a pharmaceutical composition” (Boehringer Ingelheim Pharma KG, priority 2001, dated 2003)

Test: storage of the anhydrous form at controlled relative humidity (preservation of anhydrous state)
Format: physicochemical
Conditions: coarse crystals, r.h. = relative humidity
Experimental: Alternatively to the drying step at elevated temperature under reduced pressure described above, the anhydrous form may also be prepared by storing the crystalline tiotropium bromide monohydrate over a drying agent, preferably over dried silica gel at ambient temperature for a period of 12 to 96 hours, preferably 18 to 72 hours, most preferably at least 24 hours. The anhydrous form thus obtained should be stored more or less dry, depending on the particle size, to preserve its anhydrous state. In the case of coarse crystals of anhydrous tiotropium bromide, which may be prepared for example as described above, storage at <75% r.h. (relative humidity) is sufficient to maintain the anhydrous state. In the micronised state, i.e. where the material has a much larger surface area, water may even be absorbed at lower humidity levels. In order to maintain the anhydrous form in the micronised state, it is therefore advisable to store the anhydrous form of tiotropium bromide over dried silica gel until it is further processed to form the desired inhalable powder containing suitable excipients (e.g. lactose) in addition to tiotropium bromide.

With `C[N+]1(C)C2C[C@H](OC(=O)C(O)(c3cccs3)c3cccs3)CC1[C@H]1OC21` (stereo partly drawn) [anhydrous tiotropium bromide, (1α,2β,4β,5α,7β)-7-[(hydroxydi-2-thienylacetyl)oxy]-9,9-dimethyl-3-oxa-9-azoniatricyclo[3.3.1.0^2,4]nonane-bromide] the “relative humidity of storage sufficient to maintain the anhydrous state” value was less than 75 % r.h.
